Measurements from article PMC9587990, “Molecular basis for isoform-selective inhibition of presenilin-1 by MRK-560” (Nature Communications, 2022).
Values joined by “and” are separate entries in the source; they are usually repeats but may differ in a detail not shown here. Equal values may be shown once. Read-outs that look alike come from different tables or passages of the source.

Legend:
Test in all cases: in vitro cleavage assay, Aβ40 production by AlphaLISA
Format in all cases: biochemical
[1] = molecular target: T1, PS2 I288L γ-secretase complex (Homo sapiens, UniProt P49810, I288L); conditions: for raw data from α-Lisa reading / Caculated Aβ40 production: replicates
T1 construct: made in house
Method: (§1) In total we generated six variants, including single and double residue swapping of Thr281/Leu282 in PS1 with Pro287/Ile288 in PS2, respectively. MRK-560 response to the six PS1/PS2 mutant-containing complexes, each purified to homogeneity, was examined in the in vitro cleavage assay (Fig. 4). All proteins used for the activity assay were sub-cloned, expressed and purified as described. Protein concentration was determined using the Bradford method. […] The cleavage reaction was conducted at 37 °C for 4 h. The cleaved products of these substrates were detected using a monoclonal antibody (1:1000 dilution, CW0299, CWBio) against the C-terminal Myc tag. Aβ40 production was detected using the AlphaLISA assay (PerkinElmer) as described. The IC50 values and the inhibition curves were calculated using Prism 8.0. Statistical analysis of Aβ40 was performed using Prism 8 (GraphPad Software, San Diego, CA, USA). IC50 were determined by a four-parameter logistic regression. The statistical details can be found in Figs. 1, 4 and legends. Data are expressed as mean ± SD.

[2] = molecular target: T2, PS2 P287T γ-secretase complex (Homo sapiens, UniProt P49810, P287T); conditions: for remaining activity at 0.002 µM / remaining activity at 0.04 µM / remaining activity at 0.2 µM / remaining activity at 1 µM / remaining activity at 10 µM / remaining activity at 20 µM: 4 h
T2 construct: made in house
Method: as §1

[3] = molecular target: T3, PS2 PI287-288TL γ-secretase complex (Homo sapiens, UniProt P49810, I288L/P287T); conditions: for remaining activity at 0.002 µM / remaining activity at 0.04 µM / remaining activity at 0.2 µM / remaining activity at 1 µM / remaining activity at 10 µM / remaining activity at 20 µM: 4 h
T3 construct: made in house
Method: as §1

[4] = PS2 PI 287 288 TL, MRK-560 2 nM, replicates
[5] = PS2 PI 287 288 TL, MRK-560 40 nM, replicates
[6] = PS2 PI 287 288 TL, MRK-560 200 nM, replicates
[7] = PS2 PI 287 288 TL, MRK-560 1 μM, replicates
[8] = PS2 PI 287 288 TL, MRK-560 10 μM, replicates
[9] = PS2 PI 287 288 TL, MRK-560 20 μM, replicates

T1 sequence (P49810 whole entry I288L): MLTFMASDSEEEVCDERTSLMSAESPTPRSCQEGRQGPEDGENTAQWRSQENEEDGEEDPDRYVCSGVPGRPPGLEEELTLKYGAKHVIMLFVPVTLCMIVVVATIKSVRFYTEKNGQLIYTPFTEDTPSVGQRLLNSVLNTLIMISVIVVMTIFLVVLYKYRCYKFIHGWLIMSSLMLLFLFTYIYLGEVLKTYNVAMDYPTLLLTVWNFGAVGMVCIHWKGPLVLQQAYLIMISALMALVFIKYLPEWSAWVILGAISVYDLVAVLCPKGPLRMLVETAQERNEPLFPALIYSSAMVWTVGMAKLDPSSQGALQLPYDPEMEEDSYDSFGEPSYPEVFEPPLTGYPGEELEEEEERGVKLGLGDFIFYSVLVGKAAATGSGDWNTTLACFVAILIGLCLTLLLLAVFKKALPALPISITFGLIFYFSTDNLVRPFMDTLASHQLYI
T1 sequence (Q96BI3 whole entry partner): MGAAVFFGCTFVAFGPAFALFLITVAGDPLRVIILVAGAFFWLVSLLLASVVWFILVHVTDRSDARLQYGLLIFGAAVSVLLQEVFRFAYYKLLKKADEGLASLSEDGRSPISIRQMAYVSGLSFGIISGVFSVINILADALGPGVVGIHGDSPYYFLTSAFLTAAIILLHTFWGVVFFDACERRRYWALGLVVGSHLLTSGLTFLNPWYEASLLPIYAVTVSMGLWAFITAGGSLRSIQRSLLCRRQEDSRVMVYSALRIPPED
T1 sequence (Q9NZ42 whole entry partner): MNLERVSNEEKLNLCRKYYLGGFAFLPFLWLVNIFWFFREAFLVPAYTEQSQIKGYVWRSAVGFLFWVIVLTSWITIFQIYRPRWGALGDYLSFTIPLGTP
T1 sequence (Q92542 34-709 partner): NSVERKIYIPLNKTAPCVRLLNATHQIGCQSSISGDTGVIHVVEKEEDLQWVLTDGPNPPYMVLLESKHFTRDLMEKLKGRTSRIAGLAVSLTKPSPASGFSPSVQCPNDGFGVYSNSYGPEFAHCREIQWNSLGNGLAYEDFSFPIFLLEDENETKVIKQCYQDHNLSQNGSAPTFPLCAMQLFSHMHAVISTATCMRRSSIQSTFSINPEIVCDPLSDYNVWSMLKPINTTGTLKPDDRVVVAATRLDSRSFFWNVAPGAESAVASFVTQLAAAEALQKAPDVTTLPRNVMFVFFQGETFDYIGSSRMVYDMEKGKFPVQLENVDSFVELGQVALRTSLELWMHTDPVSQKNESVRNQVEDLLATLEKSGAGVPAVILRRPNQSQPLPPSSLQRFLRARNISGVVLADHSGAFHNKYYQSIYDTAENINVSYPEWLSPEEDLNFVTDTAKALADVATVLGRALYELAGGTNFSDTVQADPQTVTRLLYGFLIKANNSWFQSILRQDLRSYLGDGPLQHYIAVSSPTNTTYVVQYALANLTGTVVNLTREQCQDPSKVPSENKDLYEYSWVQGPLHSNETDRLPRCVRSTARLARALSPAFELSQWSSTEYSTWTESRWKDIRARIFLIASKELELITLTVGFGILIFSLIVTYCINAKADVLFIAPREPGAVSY
T2 sequence (P49810 whole entry P287T): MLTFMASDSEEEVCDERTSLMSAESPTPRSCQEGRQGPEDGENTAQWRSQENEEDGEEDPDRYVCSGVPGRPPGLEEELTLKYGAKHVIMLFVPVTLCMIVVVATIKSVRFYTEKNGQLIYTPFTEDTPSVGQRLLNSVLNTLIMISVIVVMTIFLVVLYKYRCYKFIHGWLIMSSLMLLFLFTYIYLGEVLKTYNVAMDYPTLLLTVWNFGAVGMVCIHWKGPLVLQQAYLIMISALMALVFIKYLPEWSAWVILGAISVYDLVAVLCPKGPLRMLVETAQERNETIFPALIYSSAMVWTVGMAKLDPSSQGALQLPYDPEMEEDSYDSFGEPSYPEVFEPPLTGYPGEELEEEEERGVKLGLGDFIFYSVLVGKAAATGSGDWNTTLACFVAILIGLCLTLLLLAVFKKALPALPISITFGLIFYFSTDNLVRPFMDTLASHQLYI
T2 sequence (Q96BI3 whole entry partner): as the sequence (Q96BI3 whole entry partner) above
T2 sequence (Q9NZ42 whole entry partner): as the sequence (Q9NZ42 whole entry partner) above
T2 sequence (Q92542 34-709 partner): as the sequence (Q92542 34-709 partner) above
T3 sequence (P49810 whole entry P287T/I288L): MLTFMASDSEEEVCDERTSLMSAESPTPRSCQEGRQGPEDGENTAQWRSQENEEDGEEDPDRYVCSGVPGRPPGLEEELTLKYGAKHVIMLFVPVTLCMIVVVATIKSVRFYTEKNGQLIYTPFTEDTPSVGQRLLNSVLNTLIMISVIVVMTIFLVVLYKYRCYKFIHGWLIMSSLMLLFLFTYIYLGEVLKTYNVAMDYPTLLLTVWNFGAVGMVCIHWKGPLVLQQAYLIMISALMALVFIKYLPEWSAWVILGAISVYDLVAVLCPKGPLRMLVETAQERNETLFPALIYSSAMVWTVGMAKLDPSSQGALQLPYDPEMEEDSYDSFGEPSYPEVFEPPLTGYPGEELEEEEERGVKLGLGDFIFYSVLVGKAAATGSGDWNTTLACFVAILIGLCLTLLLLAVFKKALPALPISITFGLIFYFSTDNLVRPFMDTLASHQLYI
T3 sequence (Q96BI3 whole entry partner): as the sequence (Q96BI3 whole entry partner) above
T3 sequence (Q9NZ42 whole entry partner): as the sequence (Q9NZ42 whole entry partner) above
T3 sequence (Q92542 34-709 partner): as the sequence (Q92542 34-709 partner) above

raw data from α-Lisa reading ([1]; MRK-560 2 nM): 78346 and 78633 and 77677
Caculated Aβ40 production ([1]; MRK-560 40 nM): 330.6964 and 306.7347 and 323.3048
raw data from α-Lisa reading ([1]; MRK-560 40 nM): 51118 and 47725 and 50076
Caculated Aβ40 production ([1]; MRK-560 200 nM): 87.0033 and 86.1156 and 85.5883
raw data from α-Lisa reading ([1]; MRK-560 200 nM): 14434 and 14291 and 14206
Caculated Aβ40 production ([1]; MRK-560 1 μM): 25.2908 and 26.2376 and 25.7761
raw data from α-Lisa reading ([1]; MRK-560 1 μM): 4315 and 4473 and 4396
Caculated Aβ40 production ([1]; MRK-560 10 μM): 6.5772 and 6.8972 and 6.7964
raw data from α-Lisa reading ([1]; MRK-560 10 μM): 1174 and 1228 and 1211
Caculated Aβ40 production ([1]; MRK-560 20 μM): 7.8160 and 7.8990 and 8.9905
raw data from α-Lisa reading ([1]; MRK-560 20 μM): 1383 and 1397 and 1581
IC50 ([1]; mean ± SD): 57 ± 10 nM
remaining activity at 0.002 µM ([2]; MRK-560 2 nM, mean of 3 replicates, read-out: Normalized production (control=1), Mean): 86.9%
remaining activity at 0.002 µM ([2]; MRK-560 2 nM, replicates, read-out: Normalized production (control=1)): 87.8%
remaining activity at 0.04 µM ([2]; MRK-560 40 nM, mean of 3 replicates, read-out: Normalized production (control=1), Mean): 68.9%
remaining activity at 0.04 µM ([2]; MRK-560 40 nM, replicates, read-out: Normalized production (control=1)): 70.8%
remaining activity at 0.2 µM ([2]; MRK-560 200 nM, mean of 3 replicates, read-out: Normalized production (control=1), Mean): 33.9%
remaining activity at 0.2 µM ([2]; MRK-560 200 nM, replicates, read-out: Normalized production (control=1)): 34.2%
remaining activity at 1 µM ([2]; MRK-560 1 μM, mean of 3 replicates, read-out: Normalized production (control=1), Mean): 8.68%
remaining activity at 1 µM ([2]; MRK-560 1 μM, replicates, read-out: Normalized production (control=1)): 8.69%
remaining activity at 10 µM ([2]; MRK-560 10 μM, mean of 3 replicates, read-out: Normalized production (control=1), Mean): 1.62%
remaining activity at 10 µM ([2]; MRK-560 10 μM, replicates, read-out: Normalized production (control=1)): 1.63%
remaining activity at 20 µM ([2]; MRK-560 20 μM, mean of 3 replicates, read-out: Normalized production (control=1), Mean): 1.25%
remaining activity at 20 µM ([2]; MRK-560 20 μM, replicates, read-out: Normalized production (control=1)): 1.14%
Caculated Aβ40 production ([2]; MRK-560 2 nM, replicates): 520.0011 and 533.1358 and 528.5350
raw data from α-Lisa reading ([2]; MRK-560 2 nM, replicates): 78132 and 77549 and 76464
Caculated Aβ40 production ([2]; MRK-560 40 nM, replicates): 419.8422 and 429.7041 and 404.1611
raw data from α-Lisa reading ([2]; MRK-560 40 nM, replicates): 64687 and 61254 and 63367
Caculated Aβ40 production ([2]; MRK-560 200 nM, replicates): 203.3520 and 207.5605 and 206.0857
raw data from α-Lisa reading ([2]; MRK-560 200 nM, replicates): 33202 and 32980 and 32568
Caculated Aβ40 production ([2]; MRK-560 1 μM, replicates): 52.1767 and 52.7609 and 53.0714
raw data from α-Lisa reading ([2]; MRK-560 1 μM, replicates): 8864 and 8915 and 8768
Caculated Aβ40 production ([2]; MRK-560 10 μM, replicates): 9.7739 and 9.8808 and 9.9223
raw data from α-Lisa reading ([2]; MRK-560 10 μM, replicates): 1731 and 1738 and 1713
Caculated Aβ40 production ([2]; MRK-560 20 μM, replicates): 7.8338 and 6.8972 and 8.0769
raw data from α-Lisa reading ([2]; MRK-560 20 μM, replicates): 1228 and 1427 and 1386
IC50 ([2]; mean ± SD): 106 ± 27 nM
remaining activity at 0.002 µM ([3]; PS2 PI 287 288 TL, MRK-560 2 nM, mean of 3 replicates, read-out: Normalized production (control=1), Mean): 88.4%
remaining activity at 0.002 µM ([3]; PS2 PI 287 288 TL, MRK-560 2 nM, replicates, read-out: Normalized production (control=1)): 89.8%
remaining activity at 0.04 µM ([3]; PS2 PI 287 288 TL, MRK-560 40 nM, mean of 3 replicates, read-out: Normalized production (control=1), Mean): 38.7%
remaining activity at 0.04 µM ([3]; PS2 PI 287 288 TL, MRK-560 40 nM, replicates, read-out: Normalized production (control=1)): 36.2%
remaining activity at 0.2 µM ([3]; PS2 PI 287 288 TL, MRK-560 200 nM, mean of 3 replicates, read-out: Normalized production (control=1), Mean): 6.34%
remaining activity at 0.2 µM ([3]; PS2 PI 287 288 TL, MRK-560 200 nM, replicates, read-out: Normalized production (control=1)): 6.66%
remaining activity at 1 µM ([3]; PS2 PI 287 288 TL, MRK-560 1 μM, mean of 3 replicates, read-out: Normalized production (control=1), Mean): 1.64%
remaining activity at 1 µM ([3]; PS2 PI 287 288 TL, MRK-560 1 μM, replicates, read-out: Normalized production (control=1)): 1.65%
remaining activity at 10 µM ([3]; PS2 PI 287 288 TL, MRK-560 10 μM, mean of 3 replicates, read-out: Normalized production (control=1), Mean): 0.86%
remaining activity at 10 µM ([3]; PS2 PI 287 288 TL, MRK-560 10 μM, replicates, read-out: Normalized production (control=1)): 0.88%
remaining activity at 20 µM ([3]; PS2 PI 287 288 TL, MRK-560 20 μM, mean of 3 replicates, read-out: Normalized production (control=1), Mean): 1.37%
remaining activity at 20 µM ([3]; PS2 PI 287 288 TL, MRK-560 20 μM, replicates, read-out: Normalized production (control=1)): 1.35%
Caculated Aβ40 production [3, 4]: 622.5323 and 598.5358 and 618.8332
raw data from α-Lisa reading [3, 4]: 89195 and 86274 and 88747
Caculated Aβ40 production [3, 5]: 251.4190 and 280.0544 and 273.5511
raw data from α-Lisa reading [3, 5]: 39722 and 43895 and 42953
Caculated Aβ40 production [3, 6]: 46.1689 and 42.1835 and 43.6058
raw data from α-Lisa reading [3, 6]: 7779 and 7121 and 7356
Caculated Aβ40 production [3, 7]: 11.4428 and 11.3299 and 11.2705
Normalized production (control=1) [3, 7]: 0.0163
raw data from α-Lisa reading [3, 7]: 1994 and 1975 and 1965
Caculated Aβ40 production [3, 8]: 6.1091 and 5.7952 and 6.0025
raw data from α-Lisa reading [3, 8]: 1095 and 1042 and 1077
Caculated Aβ40 production [3, 9]: 9.3406 and 8.5277 and 10.7299
raw data from α-Lisa reading [3, 9]: 1640 and 1503 and 1874
IC50 ([3]; PS2 PI287-288TL, mean ± SD): 25 ± 4 nM
SMILES: O=S(=O)(NC1CCC(c2cc(F)ccc2F)(S(=O)(=O)c2ccc(Cl)cc2)CC1)C(F)(F)F (stereo not drawn) [MRK-560, N-[cis-4-[(4-chlorophenyl)sulfonyl]-4-(2,5-difluorophenyl)cyclohexyl]-1,1,1-trifluoromethanesulfonamide]
